Values quoted from earlier work in US11345964B2, “BCR-ABL truncation mutations” (Quest Diagnostics Investments LLC, priority 2009, dated 2022).
Counter-ions that a name gives are not always drawn. Like-named read-outs stand apart in the source and are kept apart here.

Test system: patients with myeloproliferative diseases
Conditions: imatinib therapy

Cc1ccc(NC(=O)c2ccc(CN3CCN(C)CC3)cc2)cc1Nc1nccc(-c2cccnc2)n1 [imatinib, imatinib mesylate]
Primary resistance (failure to achieve any hematologic response) rate (accelerated phase): 9% | Secondary resistance (hematologic recurrence) rate (accelerated phase): 32% | Primary resistance (failure to achieve any hematologic response) rate (blast phase): 51% | Secondary resistance (hematologic recurrence) rate (blast phase): 41% | Primary resistance (failure to achieve any hematologic response) rate (chronic phase): 3% | Secondary resistance (hematologic recurrence) rate (chronic phase): 22%
